The text below walks through data of US7667052B2 (Eisai R&D Management Co., Ltd., priority 2003, dated 2010).

The first assay has as its system transcription from VEGF promoter. The experiment in a line: VEGF transcription-suppressing activity, VEGF-PLAP reporter in U251/1-8 cell. Type of assay: cell-based. The settings on record: Homo sapiens, U-251; U251/1-8 cell, PLAP activity, low oxygen 18 hours; read-out: IC50 values of VEGF transcription-suppressing activity (range given). An excerpt:
In order to prepare reporter system reflecting transcription from VEGF promoter, VEGF promoter sequence was cloned, and inserted in secretory alkali phosphatase (PLAP) vector to construct reporter vector.
In order to obtain the promoter region of human VEGF, VEGF genome was cloned from phage library. PCR primers having the sequences described in Sequence Numbers 1 and 2 were designed based on VEGF cDNA (GenBank accession number: X62568) and a fragment having about 340 bp was obtained by carrying out PCR. Human genome phage library (Human genomic library, Clontech Co.) was screened using this as a probe to obtain pUC18-VEGFA containing about 5.4 kb of VEGF 5′ flanking region. The pUC18-VEGFA was cleaved by KpnI/NheI, VEGF promoter region of about 2.3 kb obtained was inserted in the multi cloning site KpnI/NheI of secretory alkali phosphatase (PLAP) vector (Goto et al, Mol. Pharmacol., 49, 860-873, 1996), and thus, VEGF-PLAP vector was constructed.
The above-mentioned VEGF-PLAP vector was introduced in the U251 cell cultured in the DULBECCO-modified eagle medium (DMEM; manufactured by SIGMA Co., Ltd.) containing 10% fetal calf serum, and cultured in the presence of 1 mg/ml G418 (Merck Co.) to establish G418 resistant stable clone (U251/1-8 cell).
It was confirmed that U251/1-8 cell secreted PLAP under low oxygen (2% O2 incubator) in the same manner as in the report (Cell. Mol. Biol. Res. 40, 35-39, 1994) and was a reporter system reflecting the transcription from VEGF promoter. The screening of the compound suppressing VEGF production which was induced by low oxygen stimulation was carried out below using the clone.
In order to remove the influence of alkaline phosphates in serum, U251/1-8 cell was rinsed twice with the adequate amount of PBS (Phosphate buffered saline), diluted in the DMEM medium containing 10% of serum in which alkaline phosphates was inactivated by the treatment of 60° C. for 20 min., and dispensed in 96-well plates by 4×10^4 cells/180 μl.
After culturing at 37° C. overnight in a CO2 incubator (5% CO2), 20 μL of the above-mentioned incubation solution containing the test compound diluted with 3-fold succession was added, and then they were incubated in a low oxygen ([…]) incubator for 18 hours. With respect to the PLAP activity in the culture supernatants, 10 μl of the supernatants was added to 50 μl of 0.28 M Na2CO3—NaHCO3 buffer solution (pH 10.0, 8.0 mM MgSO4), and finally 50 μl of alkaline phosphatase substrate (LUMISTEIN, Genomescience Co.) was added. After reacting for one hour, the alkaline phosphatase activity of the PLAP was measured by detecting the chemical luminescence by a micro plate reader (Perkin-Elmer Co.).
The PLAP activity under usual oxygen was set as 0%, the PLAP activity of cell which was treated under low oxygen was set as 100%, and the concentration suppressing the PLAP activity by 50% was set as the IC50 value of PLAP.
Consider `CCC(OC(C)=O)C(C)C1OC1CC(C)/C=C/C=C(\C)C1OC(=O)/C=C\CCC(C)(O)C(OC(C)=O)/C=C/C1C` (stereo not drawn) [B43-1, (2Z,8E,12E,14E)-7,21-Diacetoxy-6-hydroxy-6,10,12,16,20-pentamethyl-18,19-epoxytricosa-8,12,14-trien-11-olide], for which the IC50 (as a rule, the concentration that inhibits the measured activity by half) is 0.5 to 100 nM. In the case of `CCC(O)C(C)C1OC1CC(C)/C=C/C=C(\C)C1OC(=O)CC(O)CCC(C)(O)C(OC(=O)N2CC(C)NC(C)C2)/C=C/C1C` (stereo not drawn) [B81, (8E,12E,14E)-3,6,21-Trihydroxy-6,10,12,16,20-pentamethyl-7-((3,5-dimethylpiperazin-1-yl)carbonyl)oxy-18,19-epoxytricosa-8,12,14-trien-11-olide], the IC50 fell in the range of 0.5 to 100 nM. Consider `CCOCC(=O)OC(CC)C(C)C1OC1CC(C)/C=C/C=C(\C)C1OC(=O)CC(O)CCC(C)(O)C(OC(C)=O)/C=C/C1C` (stereo not drawn) [B25, (8E,12E,14E)-7-Acetoxy-21-ethoxyacetoxy-3,6-dihydroxy-6,10,12,16,20-pentamethyl-18,19-epoxytricosa-8,12,14-trien-11-olide], for which the IC50 lay in the range of 0.5 to 100 nM. Same read-out and setting: in the case of `CCC(OC(C)=O)C(C)C(O)C(Cl)CC(C)/C=C/C=C(\C)C1OC(=O)CC(O)CCC(C)(O)C(OC(C)=O)/C=C/C1C` (stereo not drawn) [B21-2, (8E,12E,14E)-7,21-diacetoxy-18-chloro-3,6,19-trihydroxy-6,10,12,16,20-pentamethyltricosa-8,12,14-trien-11-olide] it was 0.5 to 100 nM; in that of `CCOCC(=O)OC1CCC(C)(O)C(OC(C)=O)/C=C/C(C)C(/C(C)=C/C=C/C(C)CC2OC2C(C)C(O)CC)OC(=O)C1` (stereo not drawn) [B24, (8E,12E,14E)-7-Acetoxy-3-ethoxyacetoxy-6,21-dihydroxy-6,10,12,16,20-pentamethyl-18,19-epoxytricosa-8,12,14-trien-11-olide], 0.5 to 100 nM. In the case of `CCC(OC(C)=O)C(C)C1OC1CC(C)/C=C/C=C(\C)C1OC(=O)CC(O)CCC(C)(O)C(OC(C)=O)/C=C/C1C` (stereo not drawn) [B20-2, (8E,12E,14E)-7,21-diacetoxy-3,6-dihydroxy-6,10,12,16,20-pentamethyl-18,19-epoxytricosa-8,12,14-trien-11-olide], the IC50 fell in the range of 0.5 to 100 nM. Still for that read-out and setting: next, `CCC(F)C(C)C1OC1CC(C)/C=C/C=C(\C)C1OC(=O)CC(O)CCC(C)(O)C(OC(C)=O)/C=C/C1C` (stereo not drawn) [B18-1, (8E,12E,14E)-7-Acetoxy-21-fluoro-3,6-dihydroxy-6,10,12,16,20-pentamethyl-18,19-epoxytricosa-8,12,14-trien-11-olide]: 0.5 to 100 nM. On the same count and under the same terms, next, `CCC(O)C(C)C1OC1CC(C)/C=C/C=C(\C)C1OC(=O)CC(O)CCC(C)(O)C(OC(=O)NCCc2ccccn2)/C=C/C1C` (stereo not drawn) [B47, (8E,12E,14E)-3,6,21-Trihydroxy-6,10,12,16,20-pentamethyl-7-N-(2-(2-pyridyl)ethyl)carbamoyloxy-18,19-epoxytricosa-8,12,14-trien-11-olide]: 0.5 to 100 nM. The same measure, in the same setting: next, `CCOCC(=O)OCC(=O)OC1CCC(C)(O)C(OC(C)=O)/C=C/C(C)C(/C(C)=C/C=C/C(C)CC2OC2C(C)C(O)CC)OC(=O)C1` (stereo not drawn) [B26]: 0.5 to 100 nM; `CCC(O)C(C)C(Cl)C(O)CC(C)/C=C/C=C(\C)C1OC(=O)CC(O)CCC(C)(O)C(OC(C)=O)/C=C/C1C` (stereo not drawn) [B1-1, (8E,12E,14E)-7-Acetoxy-19-chloro-3,6,18,21-tetrahydroxy-6,10,12,16,20-pentamethyltricosa-8,12,14-trien-11-olide]: 0.5 to 100 nM; `CCC(O)C(C)C1OC1CC(C)/C=C/C=C(\C)C1OC(=O)CC(O)CCC(C)(O)C(OC(=O)c2ccccc2)/C=C/C1C` (stereo not drawn) [B41, (8E,12E,14E)-7-Benzoyloxy-3,6,21-trihydroxy-6,10,12,16,20-pentamethyl-18,19-epoxytricosa-8,12,14-trien-11-olide]: 0.5 to 100 nM. As to `CCC(O)C(C)C1OC1CC(C)/C=C/C=C(\C)C1OC(=O)CC(O)CCC(C)(O)C(OC(=O)NC2CC(C)(C)N(C)C(C)(C)C2)/C=C/C1C` (stereo not drawn) [B82, (8E,12E,14E)-3,6,21-Trihydroxy-6,10,12,16,20-pentamethyl-7-N-(1,2,2,6,6-pentamethylpiperidin-4-yl)carbamoyloxy-18,19-epoxytricosa-8,12,14-trien-11-olide], the concentration for half-maximal inhibition (IC50) was in the range of 0.5 to 100 nM.

`CCC(OC(=O)c1cccnc1)C(C)C1OC1CC(C)/C=C/C=C(\C)C1OC(=O)CC(O)CCC(C)(O)C(OC(C)=O)/C=C/C1C` (stereo not drawn) [B29, (8E,12E,14E)-7-Acetoxy-3-6-dihydroxy-6,10,12,16,20-pentamethyl-21-nicotinoxy-18,19-epoxytricosa-8,12,14-trien-11-olide]: the IC50 is 0.5 to 100 nM. On the same count and under the same terms, next, `CC/C(=N\OC)C(C)C1OC1CC(C)/C=C/C=C(\C)C1OC(=O)CC(O)CCC(C)(O)C(OC(C)=O)/C=C/C1C` (stereo not drawn) [B74, (8E,12E,14E)-7-Acetoxy-3,6-dihydroxy-21-methoxyimino-6,10,12,16,20-pentamethyl-18,19-epoxytricosa-8,12,14-trien-11-olide]: 0.5 to 100 nM; `CCC(OC(=O)CN(C)C)C(C)C1OC1CC(C)/C=C/C=C(\C)C1OC(=O)CC(O)CCC(C)(O)C(OC(C)=O)/C=C/C1C` (stereo not drawn) [B28, (8E,12E,14E)-7-Acetoxy-3,6-dihydroxy-6,10,12,16,20-pentamethyl-21-dimethylaminoacetoxy-18,19-epoxytricosa-8,12,14-trien-11-olide]: 0.5 to 100 nM. The same measure, in the same setting: next, `CCC(O)C(C)C1OC1CC(C)/C=C/C=C(\C)C1OC(=O)CC(O)CCC(C)(O)C(OC(=O)N2CCC(N3CCCCC3)CC2)/C=C/C1C` (stereo not drawn) [B77]: 0.5 to 100 nM; `CCC(O)C(C)C1OC1CC(C)/C=C/C=C(\C)C1OC(=O)CC(O)CCC(C)(O)C(OC(=O)NCCCN2CCOCC2)/C=C/C1C` (stereo not drawn) [B60, (8E,12E,14E)-3,6,21-Trihydroxy-6,10,12,16,20-pentamethyl-7-N-(3-(morpholin-4-yl)propyl)carbamoyloxy-18,19-epoxytricosa-8,12,14-trien-11-olide]: 0.5 to 100 nM. For `CCC(O)C(C)C1OC1CC(C)/C=C/C=C(\C)C1OC(=O)CC(O)CCC(C)(O)C(OC(=O)N2CCN(C(C)=O)CC2)/C=C/C1C` (stereo not drawn) [B51, (8E,12E,14E)-7-((4-Acetylpiperazin-1-yl)carbonyl)oxy-3,6,21-trihydroxy-6,10,12,16,20-pentamethyl-18,19-epoxytricosa-8,12,14-trien-11-olide], the IC50 lay in the range of 0.5 to 100 nM. The same measure, in the same setting: next, `CCC(O)C(C)C1OC1CC(C)/C=C/C=C(\C)C1OC(=O)CC(OC(N)=O)CCC(C)(O)C(OC(C)=O)/C=C/C1C` (stereo not drawn) [B35-1, (8E,12E,14E)-7-Acetoxy-3-carbamoyloxy-6,21-dihydroxy-6,10,12,16,20-pentamethyl-18,19-epoxytricosa-8,12,14-trien-11-olide]: 0.5 to 100 nM; `CCC(O)C(C)C1OC1CC(C)/C=C/C=C(\C)C1OC(=O)CC(O)CCC(C)(O)C(OC(=O)N2CCCNCC2)/C=C/C1C` (stereo not drawn) [B61, (8E,12E,14E)-3,6,21-Trihydroxy-6,10,12,16,20-pentamethyl-7-((homopiperazin-1-yl)carbonyl)oxy-18,19-epoxytricosa-8,12,14-trien-11-olide]: 0.5 to 100 nM; `CCC(O)C(C)C1OC1CC(C)/C=C/C=C(\C)C1OC(=O)CC(OC)CCC(C)(O)C(OC(C)=O)/C=C/C1C` (stereo not drawn) [B8-4, (8E,12E,14E)-7-acetoxy-6,21-dihydroxy-3-methoxy-6,10,12,16,20-pentamethyl-18,19-epoxytricosa-8,12,14-trien-11-olide]: 0.5 to 100 nM.

As for `CCC(O)C(C)C1OC1CC(C)/C=C/C=C(\C)C1OC(=O)CC(O)CCC(C)(O)C(OC(=O)NCc2cccnc2)/C=C/C1C` (stereo not drawn) [B57, (8E,12E,14E)-3,6,21-Trihydroxy-6,10,12,16,20-pentamethyl-7-N-(3-pyridylmethyl)carbamoyloxy-18,19-epoxytricosa-8,12,14-trien-11-olide], the IC50 lay in the range of 0.5 to 100 nM. On the same count and under the same terms, next, `CCC(OS(C)(=O)=O)C(C)C1OC1CC(C)/C=C/C=C(\C)C1OC(=O)CC(O)CCC(C)(O)C(OC(C)=O)/C=C/C1C` (stereo not drawn) [B16-1, (8E,12E,14E)-7-Acetoxy-3,6-dihydroxy-21-methanesulfonyloxy-6,10,12,16,20-pentamethyl-18,19-epoxytricosa-8,12,14-trien-11-olide]: 0.5 to 100 nM.

The same assay, now with this note: Homo sapiens, U-251; U251/1-8 cell, PLAP activity, low oxygen 18 hours; read-out: VEGF transcription suppressing activity (IC50: nM).
On to `CCC(OC(C)=O)C(C)C1OC1CC(C)/C=C/C=C(\C)C1OC(=O)CC(O)CCC(C)(O)C(OC(C)=O)/C=C/C1C` (stereo not drawn) [B20-2, (8E,12E,14E)-7,21-diacetoxy-3,6-dihydroxy-6,10,12,16,20-pentamethyl-18,19-epoxytricosa-8,12,14-trien-11-olide], for which the IC50 was found to be 1.6 nM.
